Measured values taken from patent publication US8562949B2, “Radiolabeled dihydrotetrabenazine derivatives and their use as imaging agents” (The Trustees of the University of Pennsylvania, priority 2006, dated 2013).
“And” between values parts separate entries of the source, which are not always exact repeats. Identical values can stand only once.

Assays:
[1] = target: VMAT2 (Mus musculus, UniProt Q8BRU6); assay: Saturation binding of 18F ligands in mouse striatal homogenates; design: The basal forebrain regions of rat and mouse brains were then dissected; from tissue; host or cells: mouse striatal homogenate; mouse brain coronal sections; settings: estimated based on S.A.=2000 Ci/mmole
Method: The basal forebrain regions of rat and mouse brains were then dissected. The tissue homogenates were prepared in 50 mM Hepes, pH 7.5 and 0.3 M sucrose. The specific binding of ^3H or ^18F ligands were determined following the procedures described (Scherman D, Raisman R, Ploska A, Agid Y., [^3H]Dihydrotetrabenazine, a new in vitro monoaminergic probe for human brain, J. Neurochem., 1988:50:1131-36). Total volume of reaction for the assay was 0.2 ml. […] In saturation experiments, increasing concentrations of labeled ligand […] in 50 μl buffer were incubated with 100 μl of homogenates (100-250 μg). Incubation was carried out routinely at room temperature for 90 min. The samples were then filtered through glass fiber filters No. 25 (Schleicher and Schuell, Keene, N.H.) and the bound radioactivity was determined for ^18F in a gamma counter (Packard 5000) with 70% efficiency. Filters containing bound ^3H ligand were dissolved in 7 ml Ecolite(+) overnight and the radioactivity was counted next day in the scintillation counter (Beckman) with 65% counting efficiency. […] Nonspecific binding was determined in the presence of 10 μM tetrabenazine. Both saturation and competition experiments were analyzed using the nonlinear least-square curve fitting program LIGAND. […]

[2] = Partition coefficient 1-octanol/phosphate buffer; type: physicochemical; settings: pH 7.4, 1-octanol and phosphate buffer
Method: Partition coefficients were measured by mixing the [^18F]tracer with 3 g each of 1-octanol and buffer (0.1 M phosphate, pH 7.4) in a test tube. The test tube was vortexed for 3 min at room temperature, followed by centrifugation for 5 min. Two weighed samples (0.5 g each) from the 1-octanol and buffer layers were counted in a well counter. The partition coefficient was determined by calculating the ratio of cpm/g of 1-octanol to that of buffer. Samples from the 1-octanol layer were re-partitioned until consistent partitions of coefficient values were obtained. Values are the mean±SEM of three independent experiments, each in duplicates.

[3] = Biodistribution of [18F]6a and [18F]6b in normal mice (iv injection); type: in vivo, ICR mice
Method: While under isoflurane anesthesia, 0.15 mL of a 0.1% bovine serum albumin solution containing [^18F]tracers (10-20 μCi) were injected directly into the tail vein of ICR mice (22-25 g, male) The mice (n=3 for each time point) were sacrificed by cervical dislocation at indicated time points post injection. The organs of interest were removed and weighed, and the radioactivity was counted with an automatic gamma counter. The percentage dose per organ was calculated by a comparison of the tissue counts to suitably diluted aliquots of the injected material. Total activities of blood were calculated under the assumption that they were 7% of the total body weight. The % dose/g of samples was calculated by comparing the sample counts with the count of the diluted initial dose.

Chain of VMAT2 (Q8BRU6 whole entry): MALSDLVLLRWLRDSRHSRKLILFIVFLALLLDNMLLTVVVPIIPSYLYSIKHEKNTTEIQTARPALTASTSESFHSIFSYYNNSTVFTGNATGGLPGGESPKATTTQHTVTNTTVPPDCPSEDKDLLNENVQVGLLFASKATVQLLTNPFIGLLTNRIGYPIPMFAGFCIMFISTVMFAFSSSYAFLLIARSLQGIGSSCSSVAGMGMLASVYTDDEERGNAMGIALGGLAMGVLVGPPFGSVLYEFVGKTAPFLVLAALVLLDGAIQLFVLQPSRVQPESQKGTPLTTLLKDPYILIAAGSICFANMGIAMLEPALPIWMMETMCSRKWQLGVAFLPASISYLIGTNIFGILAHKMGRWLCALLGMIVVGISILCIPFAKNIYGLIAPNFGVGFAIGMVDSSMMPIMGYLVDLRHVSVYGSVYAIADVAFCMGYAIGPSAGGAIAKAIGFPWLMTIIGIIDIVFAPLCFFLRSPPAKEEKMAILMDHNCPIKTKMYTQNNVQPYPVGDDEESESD

Kd [1]: 0.52 nM
logD at 3 min [2]: 2.12
remaining in brain (brain washout) ([3]; 30 min p.i., normal mice): > 50%
brain uptake ([3]; mice, iv, 2 min): 4.66 % ID/g
ST/CB ratio ([3]; mice, iv, time not stated): 1.9
Organ distribution Blood ([3]; normal mice, iv, 2 min): 2.68 ± 0.37 % dose/g
Organ distribution Bone ([3]; normal mice, iv, 2 min): 2.07 ± 0.05 % dose/g
Organ distribution Brain ([3]; normal mice, iv, 2 min): 4.66 % dose/g and 4.66 ± 0.78 % dose/g
Organ distribution Heart ([3]; normal mice, iv, 2 min): 4.49 ± 0.85 % dose/g
Organ distribution Kidney ([3]; normal mice, iv, 2 min): 10.7 ± 3.06 % dose/g
Organ distribution Liver ([3]; normal mice, iv, 2 min): 18.2 ± 4.14 % dose/g
Organ distribution Lung ([3]; normal mice, iv, 2 min): 5.83 ± 1.25 % dose/g
Organ distribution Muscle ([3]; normal mice, iv, 2 min): 0.66 ± 0.10 % dose/g
Organ distribution Skin ([3]; normal mice, iv, 2 min): 0.91 ± 0.10 % dose/g
Organ distribution Spleen ([3]; normal mice, iv, 2 min): 8.11 ± 0.90 % dose/g
Ratio (vs CB) Cortex ([3]; normal mice, iv, 2 min): 1.06
Ratio (vs CB) Hippocampus ([3]; normal mice, iv, 2 min): 1.09
Ratio (vs CB) Striatum ([3]; normal mice, iv, 2 min): 1.23
Regional brain distribution Cerebellum (CB) ([3]; normal mice, iv, 2 min): 4.42 ± 0.74 % dose/g
Regional brain distribution Cortex ([3]; normal mice, iv, 2 min): 4.70 ± 0.66 % dose/g
Regional brain distribution Hippocampus ([3]; normal mice, iv, 2 min): 4.84 ± 0.72 % dose/g
Regional brain distribution Striatum ([3]; normal mice, iv, 2 min): 5.46 ± 0.80 % dose/g
Organ distribution Blood ([3]; normal mice, iv, 15 min): 2.05 ± 0.17 % dose/g
Organ distribution Bone ([3]; normal mice, iv, 15 min): 2.40 ± 0.23 % dose/g
Organ distribution Brain ([3]; normal mice, iv, 15 min): 2.10 ± 0.25 % dose/g
Organ distribution Heart ([3]; normal mice, iv, 15 min): 1.99 ± 0.19 % dose/g
Organ distribution Kidney ([3]; normal mice, iv, 15 min): 5.51 ± 1.55 % dose/g
Organ distribution Liver ([3]; normal mice, iv, 15 min): 10.5 ± 1.48 % dose/g
Organ distribution Lung ([3]; normal mice, iv, 15 min): 2.96 ± 0.30 % dose/g
Organ distribution Muscle ([3]; normal mice, iv, 15 min): 1.01 ± 0.02 % dose/g
Organ distribution Skin ([3]; normal mice, iv, 15 min): 1.19 ± 0.03 % dose/g
Organ distribution Spleen ([3]; normal mice, iv, 15 min): 2.77 ± 0.33 % dose/g
Ratio (vs CB) Cortex ([3]; normal mice, iv, 15 min): 0.92
Ratio (vs CB) Hippocampus ([3]; normal mice, iv, 15 min): 1.18
Ratio (vs CB) Striatum ([3]; normal mice, iv, 15 min): 1.91
Regional brain distribution Cerebellum (CB) ([3]; normal mice, iv, 15 min): 1.97 ± 0.22 % dose/g
Regional brain distribution Cortex ([3]; normal mice, iv, 15 min): 1.82 ± 0.19 % dose/g
Regional brain distribution Hippocampus ([3]; normal mice, iv, 15 min): 2.33 ± 0.30 % dose/g
Regional brain distribution Striatum ([3]; normal mice, iv, 15 min): 3.76 ± 0.51 % dose/g
Organ distribution Blood ([3]; normal mice, iv, 30 min): 2.27 ± 0.11 % dose/g
Organ distribution Bone ([3]; normal mice, iv, 30 min): 3.88 % dose/g and 3.88 ± 0.47 % dose/g
Organ distribution Brain ([3]; normal mice, iv, 30 min): 2.09 ± 0.09 % dose/g
Organ distribution Heart ([3]; normal mice, iv, 30 min): 2.14 ± 0.11 % dose/g
Organ distribution Kidney ([3]; normal mice, iv, 30 min): 4.18 ± 0.33 % dose/g
Organ distribution Liver ([3]; normal mice, iv, 30 min): 8.85 ± 1.34 % dose/g
Organ distribution Lung ([3]; normal mice, iv, 30 min): 2.83 ± 0.25 % dose/g
Organ distribution Muscle ([3]; normal mice, iv, 30 min): 1.52 ± 0.07 % dose/g
Organ distribution Skin ([3]; normal mice, iv, 30 min): 1.72 ± 0.11 % dose/g
Organ distribution Spleen ([3]; normal mice, iv, 30 min): 2.62 ± 0.20 % dose/g
Ratio (vs CB) Cortex ([3]; normal mice, iv, 30 min): 1.00
Ratio (vs CB) Hippocampus ([3]; normal mice, iv, 30 min): 1.03
Ratio (vs CB) Striatum ([3]; normal mice, iv, 30 min): 1.71
Regional brain distribution Cerebellum (CB) ([3]; normal mice, iv, 30 min): 1.97 ± 0.14 % dose/g
Regional brain distribution Cortex ([3]; normal mice, iv, 30 min): 1.96 ± 0.14 % dose/g
Regional brain distribution Hippocampus ([3]; normal mice, iv, 30 min): 2.02 ± 0.10 % dose/g
Regional brain distribution Striatum ([3]; normal mice, iv, 30 min): 3.37 ± 0.06 % dose/g
Organ distribution Blood ([3]; normal mice, iv, 1 hr): 1.75 ± 0.16 % dose/g
Organ distribution Bone ([3]; normal mice, iv, 1 hr): 5.84 ± 1.42 % dose/g
Organ distribution Brain ([3]; normal mice, iv, 1 hr): 1.51 ± 0.20 % dose/g
Organ distribution Heart ([3]; normal mice, iv, 1 hr): 1.53 ± 0.15 % dose/g
Organ distribution Kidney ([3]; normal mice, iv, 1 hr): 2.27 ± 0.39 % dose/g
Organ distribution Liver ([3]; normal mice, iv, 1 hr): 3.88 ± 0.40 % dose/g
Organ distribution Lung ([3]; normal mice, iv, 1 hr): 1.74 ± 0.04 % dose/g
Organ distribution Muscle ([3]; normal mice, iv, 1 hr): 1.05 ± 0.03 % dose/g
Organ distribution Skin ([3]; normal mice, iv, 1 hr): 1.23 ± 0.06 % dose/g
Organ distribution Spleen ([3]; normal mice, iv, 1 hr): 1.56 ± 0.07 % dose/g
Ratio (vs CB) Cortex ([3]; normal mice, iv, 1 hr): 1.12
Ratio (vs CB) Hippocampus ([3]; normal mice, iv, 1 hr): 1.05
Ratio (vs CB) Striatum ([3]; normal mice, iv, 1 hr): 1.71
Regional brain distribution Cerebellum (CB) ([3]; normal mice, iv, 1 hr): 1.85 ± 0.20 % dose/g
Regional brain distribution Cortex ([3]; normal mice, iv, 1 hr): 2.07 ± 0.42 % dose/g
Regional brain distribution Hippocampus ([3]; normal mice, iv, 1 hr): 1.95 ± 0.49 % dose/g
Regional brain distribution Striatum ([3]; normal mice, iv, 1 hr): 3.17 ± 0.79 % dose/g
Organ distribution Blood ([3]; normal mice, iv, 2 hr): 1.38 ± 0.20 % dose/g
Organ distribution Bone ([3]; normal mice, iv, 2 hr): 8.89 ± 0.75 % dose/g
Organ distribution Brain ([3]; normal mice, iv, 2 hr): 1.13 ± 0.10 % dose/g
Organ distribution Heart ([3]; normal mice, iv, 2 hr): 1.22 ± 0.13 % dose/g
Organ distribution Kidney ([3]; normal mice, iv, 2 hr): 1.40 ± 0.30 % dose/g
Organ distribution Liver ([3]; normal mice, iv, 2 hr): 3.36 ± 0.32 % dose/g
Organ distribution Lung ([3]; normal mice, iv, 2 hr): 1.29 ± 0.19 % dose/g
Organ distribution Muscle ([3]; normal mice, iv, 2 hr): 0.73 ± 0.13 % dose/g
Organ distribution Skin ([3]; normal mice, iv, 2 hr): 0.85 ± 0.10 % dose/g
Organ distribution Spleen ([3]; normal mice, iv, 2 hr): 1.06 ± 0.10 % dose/g
Ratio (vs CB) Cortex ([3]; normal mice, iv, 2 hr): 0.81
Ratio (vs CB) Hippocampus ([3]; normal mice, iv, 2 hr): 1.12
Ratio (vs CB) Striatum ([3]; normal mice, iv, 2 hr): 1.28
Regional brain distribution Cerebellum (CB) ([3]; normal mice, iv, 2 hr): 1.09 ± 0.03 % dose/g
Regional brain distribution Cortex ([3]; normal mice, iv, 2 hr): 0.88 ± 0.21 % dose/g
Regional brain distribution Hippocampus ([3]; normal mice, iv, 2 hr): 1.22 ± 0.18 % dose/g
Regional brain distribution Striatum ([3]; normal mice, iv, 2 hr): 1.39 ± 0.03 % dose/g
SMILES: COc1cc2c(cc1OCC[18F])CCN1CC(CC(C)C)C(O)CC21 (racemic) [[^18F]6a]
